Data as given in ChEMBL document CHEMBL1126081, “Active conformation of a tumor promoter, teleocidin. A molecular dynamics study” (1992).

System: HL-60
Experiment: Dose inducing HL-60 cell adhesion related to skin tumor promotion.
Assay type: functional, Homo sapiens

SMILES	ED50
C[C@H]1C(=O)N[C@H](CO)Cc2c[nH]c3cccc(c23)N1C (racemic)	3.7e-06 M l-1
CN1c2cccc3[nH]cc(c23)C[C@@H](CO)NC(=O)[C@@H]1C(C)(C)C (racemic)	1.1e-07 M l-1
CN1CC(=O)N[C@H](CO)Cc2c[nH]c3cccc1c23 (racemic)	3.9e-05 M l-1
